In US20240335555A1, “TECHNOLOGIES FOR PREVENTING OR TREATING INFECTIONS” (priority 2021, published 2024):
*: point of attachment. Biotin = O=C1N[C@H]2[C@H](CS[C@H]2CCCCC(=O)*)N1; PEG4 = NCCOCCOCCOCCOCCC(=O)O

Assays:
[1] = test system: USA-WA1/2020 (SARS-CoV-2) virus; conditions: USA-WA1/2020 virus
[2] = biological target: T1, ACE2 binding to Spike RBD (Severe acute respiratory syndrome coronavirus 2, UniProt P0DTC2); test: biochemical; conditions: for inhibition at 1 µM: @ 1,000 nM
T1 construct: Biotin-(I-24) or His-tagged RBD protein is added; purchased Acro Biosystems SPD-C52H3 (RBD); AC2-H5257 (ACE2-Fc)

[3] = biological target: T2, SARS-CoV-2 (COVID-19) S Protein RBD (Severe acute respiratory syndrome coronavirus 2, UniProt P0DTC2); assay type: binding; conditions: Octet
T2 construct: SARS-CoV-2 (COVID-19) S Protein RBD, His Tag—Acro Biosystems SPD-C52H3; purchased Acro Biosystems SPD-C52H3

## CC[C@H](C)[C@H](NC(=O)[C@H](CC(C)C)NC(=O)[C@H](CC(=O)O)NC(=O)[C@H](CO)NC(=O)[C@@H](NC(=O)[C@H](CCCNC(=N)N)NC(=O)[C@H](CCSC)NC(=O)[C@H](CO)NC(=O)[C@H](C)NC(=O)[C@H](CCC(=O)O)NC(=O)[C@H](C)NC(=O)[C@H](Cc1c[nH]cn1)NC(=O)CNC(=O)[C@H](CC(C)C)NC(=O)[C@H](CCC(=O)O)NC(=O)[C@H](CC(=O)O)NC(=O)[C@H](CC(C)C)NC(=O)[C@H](CC(C)C)NC(=O)[C@H](CCCNC(=N)N)NC(=O)[C@H](CCSC)NC(=O)[C@@H](NC(=O)[C@H](CCC(=O)O)NC(=O)[C@H](Cc1ccc(O)cc1)NC(=O)[C@@H](NC(=O)[C@H](CCCCN)NC(=O)[C@H](CCC(N)=O)NC(=O)[C@H](CC(C)C)NC(=O)[C@@H](NC(=O)[C@H](Cc1c[nH]c2ccccc12)NC(=O)[C@H](CCC(=O)O)NC(=O)[C@H](CCCCN)NC(=O)[C@H](CC(=O)O)NC(=O)CCOCCOCCOCCOCCNC(=O)CCCC[C@@H]1SC[C@@H]2NC(=O)N[C@@H]21)[C@@H](C)CC)[C@@H](C)CC)[C@@H](C)CC)C(C)C)C(=O)N[C@@H](Cc1ccc(O)cc1)C(=O)N[C@@H](CCC(=O)O)C(=O)N[C@@H](Cc1ccccc1)C(=O)N[C@@H](CCSC)C(=O)N[C@@H](CCCCN)C(=O)N[C@@H](CCCCN)C(=O)NCC(=O)N[C@@H](CC(=O)O)C(=O)N[C@@H](CCC(=O)O)C(=O)N[C@@H](CCCNC(=N)N)C(=O)N[C@@H](CC(C)C)C(=O)N[C@@H](CC(C)C)C(=O)N[C@@H](CCC(=O)O)C(=O)N[C@@H](CCC(=O)O)C(=O)N[C@@H](C)C(=O)N[C@@H](CCC(=O)O)C(=O)N[C@@H](CCCNC(=N)N)C(=O)N[C@@H](CC(C)C)C(=O)N[C@@H](CC(C)C)C(=O)N[C@@H](CCC(=O)O)C(=O)N[C@@H](CCC(=O)O)C(=O)N[C@H](C(=O)N[C@@H](CCC(=O)O)C(=O)N[C@@H](CCCNC(=N)N)C(=O)O)C(C)C [Compound I-6]
[1]
  IC50: < 4.6 nM

## CC[C@H](C)[C@H](NC(=O)[C@H](CC(C)C)NC(=O)[C@H](CC(=O)O)NC(=O)[C@H](CO)NC(=O)[C@@H](NC(=O)[C@H](CCCNC(=N)N)NC(=O)[C@H](CCSC)NC(=O)[C@H](CO)NC(=O)[C@H](C)NC(=O)[C@H](CCC(=O)O)NC(=O)[C@H](C)NC(=O)[C@H](Cc1c[nH]cn1)NC(=O)CNC(=O)[C@H](CC(C)C)NC(=O)[C@H](CCC(=O)O)NC(=O)[C@H](CC(=O)O)NC(=O)[C@H](CC(C)C)NC(=O)[C@H](CC(C)C)NC(=O)[C@H](CCCNC(=N)N)NC(=O)[C@H](CCSC)NC(=O)[C@@H](NC(=O)[C@H](CCC(=O)O)NC(=O)[C@H](Cc1ccc(O)cc1)NC(=O)[C@@H](NC(=O)[C@H](CCCCN)NC(=O)[C@H](CCC(N)=O)NC(=O)[C@H](CC(C)C)NC(=O)[C@@H](NC(=O)[C@H](Cc1c[nH]c2ccccc12)NC(=O)[C@H](CCC(=O)O)NC(=O)[C@H](CCCCN)NC(=O)[C@H](CC(=O)O)NC(=O)CCOCCOCCOCCOCCNC(=O)CCCC[C@@H]1SC[C@@H]2NC(=O)N[C@@H]21)[C@@H](C)CC)[C@@H](C)CC)[C@@H](C)CC)C(C)C)C(=O)N[C@@H](Cc1ccc(O)cc1)C(=O)N[C@@H](CCC(=O)O)C(=O)N[C@@H](Cc1ccccc1)C(=O)N[C@@H](CCSC)C(=O)N[C@@H](CCCCN)C(=O)N[C@@H](CCCCN)C(=O)NCC(=O)N[C@@H](CC(=O)O)C(=O)N[C@@H](CCC(=O)O)C(=O)N[C@@H](CCCNC(=N)N)C(=O)N[C@@H](CC(C)C)C(=O)N[C@@H](CC(C)C)C(=O)N[C@@H](CCC(=O)O)C(=O)N[C@@H](CCC(=O)O)C(=O)N[C@@H](C)C(=O)N[C@@H](CCC(=O)O)C(=O)N[C@@H](CCCNC(=N)N)C(=O)N[C@@H](CC(C)C)C(=O)N[C@@H](CC(C)C)C(=O)N[C@@H](CCC(=O)O)C(=O)N[C@@H](CCC(=O)O)C(=O)N[C@H](C(=O)N[C@@H](CCC(=O)O)C(=O)N[C@@H](CCCNC(=N)N)C(N)=O)C(C)C [Compound I-14]
[1]
  IC50: < 4.6 nM

## Ac-DKEEILNKIYEIMRLLDELGNAEASMRVSDLILEFMKKGDERLLEEAERLLEEVER-NH2 [Compound I-1]
[2]
  inhibition at 1 µM: 42%
[2]; ELISA competition, read-out: IC50, Inhibition of ACE2 Binding to Spike RBD
  IC50: > 1000 nM
[3]
  KD, Binding to Anchored Spike RBD: No Binding

## {Biotin-PEG4}-DKEEILNKIYEIMRLLDELGNAEASMRVSDLILEFMKKGDERLLEEAERLLEEVER-NH2 [Compound I-2]
[2]
  inhibition at 1 µM: 30%
